Measured values as given in patent US20260248165A1, “A SWEETENER OR SWEETNESS ENHANCER COMPOSITION” (Analyticon Discovery – Zweigniederlassung der BRAIN Biotech …, priority 2022, published 2026).

Legend:
[1] = Organoleptic test in combination with sucrose against sucrose (sucrose enhancement), 2-AFC; assay type: in vivo; set-up: key: 3: sweeter than the control solution; 2: sweetness comparable with the control solution; 1: less sweet than the control solution but still sweet; 0: no intrinsic sweetness; settings: 12 to 15 panelists; for Sweet taste enhancement of sucrose, control solution Sucrose 6%: compound 50 ppm in 6% sucrose solution vs 6% sucrose; for Sweet taste enhancement of sucrose, control solution Sucrose 7%: compound 50 ppm in 6% sucrose solution vs 7% sucrose; for Sweet taste enhancement of sucrose, control solution Sucrose 8%: compound 50 ppm in 6% sucrose solution vs 8% sucrose; for Sweet taste enhancement of sucrose, control solution Sucrose 9%: compound 50 ppm in 6% sucrose solution vs 9% sucrose
Procedure: The isolated pure compounds were dissolved in non-carbonated mineral water (“Evian”) in a concentration of 50 ppm (0.05 mg/ml), 25 ppm (0.025 mg/ml), […] (0.0125 mg/ml) and […] (0.00625 mg/ml). The sweet taste of each sample was detected by a panel of 4 panelists to detect the sweetness perception level. The highest concentration below the sweetness perception level was used for the evaluation of the sweet taste enhancement of sucrose.
A solution of the isolated compound in a concentration below the sweetness perception level was dissolved in 6% sucrose solution. The sweet taste of this sample was compared to the sweet taste of a 6% sucrose solution by a panel of 12 to 15 panelists in a two-alternative forced-choice test (2-AFC. E2164-16_Standard Test Method for Directional Difference Test). The panelists were trained to differentiate between the sweetness of a 6%, 7%, 8%, and 9% sucrose solution. The sweetness of the solution of the enhancer in 6% sucrose was compared with sucrose solutions in concentrations of 6%, 7%, 8%, and 9%.

[2] = Organoleptic test in combination with Rebaudioside M against Rebaudioside M (Rebaudioside M enhancement), 2-AFC; assay type: in vivo; set-up: key: 3: sweeter than the control solution; 2: sweetness comparable with the control solution; 1: less sweet than the control solution but still sweet; 0: no intrinsic sweetness; settings: 12 to 15 panelists; for Sweet taste enhancement, control solution Reb M 150 ppm: compound in 150 ppm Rebaudioside M solution vs Reb M 150 ppm; for Sweet taste enhancement, control solution Reb M 170 ppm: compound in 150 ppm Rebaudioside M solution vs Reb M 170 ppm; for Sweet taste enhancement, control solution Reb M 190 ppm: compound in 150 ppm Rebaudioside M solution vs Reb M 190 ppm; for Sweet taste enhancement, control solution Reb M 210 ppm: compound in 150 ppm Rebaudioside M solution vs Reb M 210 ppm
Procedure: The isolated pure compounds were dissolved in non-carbonated mineral water (“Evian”) in a concentration of 50 ppm (0.05 mg/ml), 25 ppm (0.025 mg/ml), […] (0.0125 mg/ml) and […]. The sweet taste of each sample was detected by a panel of 3-4 panelists to detect the sweetness perception level. The highest concentration below the sweetness perception level was used for the evaluation of the sweet taste enhancement of Rebaudioside M.
A solution of the isolated compound in a concentration below the sweetness perception level was dissolved in 150 ppm Rebaudioside M solution. […] E2164-16_Standard Test Method for Directional Difference Test). The panelists were trained to differentiate between the sweetness of a 150 ppm, 170 ppm, 190 ppm, and a 210 ppm Rebaudioside M solution.

[3] = Organoleptic test of the compounds against sucrose (intrinsic sweetness); assay type: in vivo; set-up: key: 3: sweeter than the control solution; 2: sweetness comparable with the control solution; 1: less sweet than the control solution but still sweet; 0: no intrinsic sweetness; settings: 3-4 panelists; for Sweetness 50 ppm: compound 50 ppm in mineral water vs sucrose 20 g/l; for Sweetness 200 ppm: compound 200 ppm in mineral water vs sucrose 20 g/l
Procedure: The isolated pure compounds were dissolved in non-carbonated mineral water (“Evian”) in a concentration of 0.2 mg/ml (200 ppm) and 0.05 mg/ml (50 ppm). The sweet taste of each sample was compared by a panel of 3-4 panelists with a solution of sucrose in a concentration of 20 g/l.

[4] = Organoleptic comparison of Compound 1 with Millettiasaponin A; assay type: in vivo; settings: both at 200 ppm and 50 ppm in mineral water; 4 panelists
Procedure: Milettiasaponin A was published as sweet taste principle of an extract prepared from Derris eriocarpa (150× sweeter than sucrose) [J. Agric. Food Chem. 2017, 65, 2357-2363]. Milletiasaponin A has an additional hydroxyl group at C-24 compared to compound 1. Both compounds were dissolved in non-carbonated mineral water (“Evian”) in a concentration of 0.2 mg/ml (200 ppm) and 0.05 mg/ml (50 ppm). The sweet taste of both samples was compared by a panel of 4 panelists.

[5] = J. Agric. Food Chem. 2017, 65, 2357-2363; cited from earlier work
[6] = 5% sucrose in water; concentration of 100 μm; cited from earlier work

Row | SMILES | Sweet taste enhancement of sucrose, control solution Sucrose 6% [1] | Sweet taste enhancement of sucrose, control solution Sucrose 7% [1] | Sweet taste enhancement of sucrose, control solution Sucrose 8% [1] | Sweet taste enhancement of sucrose, control solution Sucrose 9% [1] | Sweet taste enhancement, control solution Reb M 150 ppm [2] | Sweet taste enhancement, control solution Reb M 170 ppm [2] | Sweet taste enhancement, control solution Reb M 190 ppm [2] | Sweet taste enhancement, control solution Reb M 210 ppm [2] | Sweetness 50 ppm [3] | Sweetness 200 ppm [3] | Sweet taste compared with Milletiasaponin A [4] | Sweetness relative to sucrose [5] | Enhancement of the sweetness of sucrose [6]
1 | COc1cc([C@H]2c3cc(O)c(OC)cc3C[C@@H](CO[C@@H]3O[C@H](CO)[C@@H](O)[C@H](O)[C@H]3O)[C@@H]2CO)ccc1O [Compound 3, Isolariciresinol 9-glucoside] | 3 | 3 | 3 | 2 | 3 | 3 | 2 | 1 | 0 | 0 | – | – | –
2 | CC(=O)O[C@@H]1C[C@](C)(C(=O)O)C[C@H]2C3=CCC4[C@@]5(C)CC[C@H](O[C@@H]6O[C@H](C(=O)O)[C@@H](O)[C@H](O)[C@H]6O[C@@H]6O[C@H](CO)[C@H](O)[C@H](O)[C@H]6O[C@@H]6O[C@@H](C)[C@H](O)[C@@H](O)[C@H]6O)C(C)(C)C5CC[C@@]4(C)[C@]3(C)CC[C@@]12C (stereo partly shown) [Compound 1, 24-Desoxy- Millettiasaponin A] | 3 | 3 | 3 | 3 | 3 | 3 | 2 | 2 | 3 | 3 | sweeter with less aftertaste than Milletiasaponin A | – | –
3 | CC1=C(C(=O)O[C@@H]2O[C@H](CO[C@@H]3OC[C@@H](O)[C@H](O)[C@H]3O)[C@@H](O)[C@H](O)[C@H]2O)C(C)(C)CCC1 [Compound 2, Jasminoside M] | 3 | 3 | 3 | 2 | 3 | 3 | 2 | 1 | 0 | 0 | – | – | –
4 | CC(=O)O[C@@H]1C[C@](C)(C(=O)O)C[C@H]2C3=CCC4[C@@]5(C)CC[C@H](O[C@@H]6O[C@H](C(=O)O)[C@@H](O)[C@H](O)[C@H]6O[C@@H]6O[C@H](CO)[C@H](O)[C@H](O)[C@H]6O[C@@H]6O[C@@H](C)[C@H](O)[C@@H](O)[C@H]6O)[C@](C)(CO)C5CC[C@@]4(C)[C@]3(C)CC[C@@]12C (stereo partly shown) [Milettiasaponin A] | – | – | – | – | – | – | – | – | – | – | – | 150 × sweeter than sucrose | –
5 | CCCCCc1cc2cc(O)cc(Oc3c(O)cc(O)cc3CCCCC)c2c(=O)o1 [Compound 4, Physodone] | 3 | 3 | 3 | 2 | 3 | 3 | 3 | 1 | 0 | 0 | – | – | –
6 | COc1ccc([C@@H]2CC(=O)c3c(O)cc(O)cc3O2)cc1O [hesperetin] | – | – | – | – | – | – | – | – | – | – | – | – | 41%
